Literature values as cited in patent publication US7101842B2, “Targeted delivery of drugs for the treatment of parasitic infections” (priority 2001, dated 2006).

System: trypanosomiasis
Details: patients treated for sleeping sickness

Nc1nc(N)nc(Nc2ccc([As]3SCC(CO)S3)cc2)n1 (centres unmarked) [melarsopral]
fatal encepholopathy in recipients: 5–7% | relapse rates: ≤ 10%
